# Laboratory results reported in ChEMBL document CHEMBL1201862, “PubChem BioAssay data set” (2004).
#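 Cultured in 96-well plates, cells were exposed to test compound for 48 hours across five concentrations. Abbreviation: GI50, concentration required for 50% inhibition of growth.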 Active and inactive are the calls of the source. No stated cut-off is given here; in the data, active = GI50 up to about 1.1 µM and inactive = higher.
# How the values were obtained:
# Experiment in all cases: NCI anticancer screen, dose series, 48 h
# 786-0 = tested on: 786-0
# A498 = tested on: A498
# A549 = tested on: A549
# ACHN = tested on: ACHN
# CAKI-1 = tested on: CAKI-1
# CCRF-CEM = tested on: CCRF-CEM
# COLO 205 = tested on: COLO 205
# DU-145 = tested on: DU-145
# EKVX = tested on: EKVX
# HCC 2998 = tested on: HCC 2998
# HCT-116 = tested on: HCT-116
# HCT-15 = tested on: HCT-15
# HL-60 = tested on: HL-60
# HOP-62 = tested on: HOP-62
# HOP-92 = tested on: HOP-92
# HT-29 = tested on: HT-29
# Hs-578T = tested on: Hs-578T
# IGROV-1 = tested on: IGROV-1
# K562 = tested on: K562
# KM12 = tested on: KM12
# LOX IMVI = tested on: LOX IMVI
# M14 = tested on: M14
# MCF7 = tested on: MCF7
# MDA-MB-231 = tested on: MDA-MB-231
# MDA-MB-435 = tested on: MDA-MB-435
# MDA-N = tested on: MDA-N
# Malme-3M = tested on: Malme-3M
# NCI-H226 = tested on: NCI-H226
# NCI-H23 = tested on: NCI-H23
# NCI-H460 = tested on: NCI-H460
# NCI-H522 = tested on: NCI-H522
# NCI/ADR-RES = tested on: NCI/ADR-RES
# OVCAR-3 = tested on: OVCAR-3
# OVCAR-4 = tested on: OVCAR-4
# OVCAR-5 = tested on: OVCAR-5
# OVCAR-8 = tested on: OVCAR-8
# PC-3 = tested on: PC-3
# RPMI-8226 = tested on: RPMI-8226
# RXF 393 = tested on: RXF 393
# SF-268 = tested on: SF-268
# SF-295 = tested on: SF-295
# SF-539 = tested on: SF-539
# SK-MEL-28 = tested on: SK-MEL-28
# SK-MEL-5 = tested on: SK-MEL-5
# SK-OV-3 = tested on: SK-OV-3
# SN12C = tested on: SN12C
# SNB-19 = tested on: SNB-19
# SNB-75 = tested on: SNB-75
# SR = tested on: SR
# SW-620 = tested on: SW-620
# T47D = tested on: T47D
# TK-10 = tested on: TK-10
# U-251 = tested on: U-251
# UACC-257 = tested on: UACC-257
# UACC-62 = tested on: UACC-62
# MOLT-4 = tested on: MOLT-4
# SK-MEL-2 = tested on: SK-MEL-2
# UO-31 = tested on: UO-31
structure (smiles),measurement,setting,value
CC1(C)N=c2c(ncn2CCCO)=C(C(N)=O)N1,GI50,786-0,> 100 µM (inactive)
same,GI50,A498,> 100 µM (inactive)
same,GI50,A549,> 100 µM (inactive)
same,GI50,ACHN,> 100 µM (inactive)
same,GI50,CAKI-1,> 100 µM (inactive)
same,GI50,CCRF-CEM,> 100 µM (inactive)
same,GI50,COLO 205,> 100 µM (inactive)
same,GI50,DU-145,> 100 µM (inactive)
same,GI50,EKVX,> 100 µM (inactive)
same,GI50,HCC 2998,> 100 µM (inactive)
same,GI50,HCT-116,> 100 µM (inactive)
same,GI50,HCT-15,> 100 µM
same,GI50,HL-60,> 100 µM (inactive)
same,GI50,HOP-62,> 100 µM (inactive)
same,GI50,HOP-92,> 100 µM (inactive)
same,GI50,HT-29,> 100 µM (inactive)
same,GI50,Hs-578T,> 100 µM (inactive)
same,GI50,IGROV-1,> 100 µM (inactive)
same,GI50,K562,> 100 µM (inactive)
same,GI50,KM12,> 100 µM (inactive)
same,GI50,LOX IMVI,> 100 µM (inactive)
same,GI50,M14,> 100 µM (inactive)
same,GI50,MCF7,> 100 µM (inactive)
same,GI50,MDA-MB-231,> 100 µM (inactive)
same,GI50,MDA-MB-435,> 100 µM (inactive)
same,GI50,MDA-N,> 100 µM (inactive)
same,GI50,Malme-3M,> 100 µM (inactive)
same,GI50,NCI-H226,> 100 µM (inactive)
same,GI50,NCI-H23,> 100 µM (inactive)
same,GI50,NCI-H460,> 100 µM (inactive)
same,GI50,NCI-H522,> 100 µM (inactive)
same,GI50,NCI/ADR-RES,> 100 µM (inactive)
same,GI50,OVCAR-3,> 100 µM (inactive)
same,GI50,OVCAR-4,> 100 µM (inactive)
same,GI50,OVCAR-5,> 100 µM (inactive)
same,GI50,OVCAR-8,> 100 µM (inactive)
same,GI50,PC-3,> 100 µM (inactive)
same,GI50,RPMI-8226,> 100 µM (inactive)
same,GI50,RXF 393,> 100 µM (inactive)
same,GI50,SF-268,> 100 µM (inactive)
same,GI50,SF-295,> 100 µM (inactive)
same,GI50,SF-539,> 100 µM (inactive)
same,GI50,SK-MEL-28,> 100 µM (inactive)
same,GI50,SK-MEL-5,> 100 µM (inactive)
same,GI50,SK-OV-3,> 100 µM (inactive)
same,GI50,SN12C,> 100 µM (inactive)
same,GI50,SNB-19,> 100 µM (inactive)
same,GI50,SNB-75,60.4 µM (inactive)
same,GI50,SR,> 100 µM (inactive)
same,GI50,SW-620,> 100 µM (inactive)
same,GI50,T47D,> 100 µM (inactive)
same,GI50,TK-10,> 100 µM (inactive)
same,GI50,U-251,> 100 µM (inactive)
same,GI50,UACC-257,> 100 µM (inactive)
same,GI50,UACC-62,> 100 µM (inactive)
COc1ccc(C(=O)/C=C/c2ccc(OCCCCCCCCCCOc3ccc(/C=C/C(=O)c4ccc(OC)cc4)cc3)cc2)cc1,GI50,786-0,> 100 µM (inactive)
same,GI50,A549,> 100 µM (inactive)
same,GI50,ACHN,> 100 µM (inactive)
same,GI50,CAKI-1,> 100 µM (inactive)
same,GI50,CCRF-CEM,> 100 µM (inactive)
same,GI50,COLO 205,> 100 µM (inactive)
same,GI50,DU-145,> 100 µM (inactive)
same,GI50,EKVX,> 100 µM (inactive)
same,GI50,HCC 2998,> 100 µM (inactive)
same,GI50,HCT-116,> 100 µM (inactive)
same,GI50,HCT-15,> 100 µM
same,GI50,HL-60,> 100 µM (inactive)
same,GI50,HOP-62,> 100 µM (inactive)
same,GI50,HT-29,> 100 µM (inactive)
same,GI50,Hs-578T,> 100 µM (inactive)
same,GI50,IGROV-1,> 100 µM (inactive)
same,GI50,K562,> 100 µM (inactive)
same,GI50,KM12,> 100 µM (inactive)
same,GI50,M14,> 100 µM (inactive)
same,GI50,MCF7,> 100 µM (inactive)
same,GI50,MDA-MB-231,> 100 µM (inactive)
same,GI50,MDA-MB-435,> 100 µM (inactive)
same,GI50,MDA-N,> 100 µM (inactive)
same,GI50,MOLT-4,> 100 µM (inactive)
same,GI50,NCI-H226,> 100 µM (inactive)
same,GI50,NCI-H460,> 100 µM (inactive)
same,GI50,NCI/ADR-RES,> 100 µM (inactive)
same,GI50,OVCAR-4,> 100 µM (inactive)
same,GI50,OVCAR-5,> 100 µM (inactive)
same,GI50,OVCAR-8,> 100 µM (inactive)
same,GI50,PC-3,> 100 µM (inactive)
same,GI50,RPMI-8226,> 100 µM (inactive)
same,GI50,RXF 393,> 100 µM (inactive)
same,GI50,SF-268,> 100 µM (inactive)
same,GI50,SF-295,> 100 µM (inactive)
same,GI50,SF-539,> 100 µM (inactive)
same,GI50,SK-MEL-28,> 100 µM (inactive)
same,GI50,SK-MEL-2,> 100 µM (inactive)
same,GI50,SK-MEL-5,> 100 µM (inactive)
same,GI50,SK-OV-3,> 100 µM (inactive)
same,GI50,SN12C,> 100 µM (inactive)
same,GI50,SNB-19,> 100 µM (inactive)
same,GI50,SNB-75,69.7 µM (inactive)
same,GI50,SR,> 100 µM (inactive)
same,GI50,SW-620,> 100 µM (inactive)
same,GI50,T47D,> 100 µM (inactive)
same,GI50,TK-10,> 100 µM (inactive)
same,GI50,U-251,> 100 µM (inactive)
same,GI50,UACC-257,> 100 µM (inactive)
same,GI50,UACC-62,> 100 µM (inactive)
same,GI50,UO-31,> 100 µM (inactive)
